Here are results for 20 substances from US10150760B2, “Compounds for use in preparing heterocyclic triazole agonists of the APJ receptor” (AMGEN INC., priority 2016, dated 2018).

One may read the EC50 as the concentration at which the effect is half-maximal.

The target of the experiment is human APJ receptor (Homo sapiens (Human), UniProt P35414). The experiment in a line: [35S]GTPγS binding assay on membranes from CHO cells stably expressing human APJ receptor. Type of experiment: biochemical. The settings on record: read-out: Activity hAPJ SPA EC50 IP. In short, it runs like this: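 Agonist-driven [35S]GTPγS (0.2 nM) binding was measured over 90 min at room temperature on human APJ-expressing CHO membranes with bead capture, in buffer containing 3 μM GDP, 200 mM NaCl and 5 mM MgCl2 (pH 7.5). Excess unlabelled GTPγS (100 μM) gave nonspecific signal; EC50 from non-linear fits.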
Chain of human APJ receptor (P35414 whole entry): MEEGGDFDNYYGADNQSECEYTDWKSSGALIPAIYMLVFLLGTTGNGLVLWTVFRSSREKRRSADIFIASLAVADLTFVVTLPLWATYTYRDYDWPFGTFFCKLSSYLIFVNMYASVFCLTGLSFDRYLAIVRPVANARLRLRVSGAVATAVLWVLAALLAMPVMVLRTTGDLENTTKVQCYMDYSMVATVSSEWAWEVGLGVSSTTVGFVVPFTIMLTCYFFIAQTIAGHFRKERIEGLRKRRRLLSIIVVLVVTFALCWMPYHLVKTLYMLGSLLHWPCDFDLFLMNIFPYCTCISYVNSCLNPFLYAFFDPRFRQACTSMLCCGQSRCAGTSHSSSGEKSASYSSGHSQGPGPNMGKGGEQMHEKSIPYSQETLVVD
For “(1S,2S)-N-(4-(4,6-dimethoxypyrimidin-5-yl)-5-((R)-tetrahydrofuran-3-yl)-4H-1,2,4-triazol-3-yl)-1-(5-fluoropyrimidin-2-yl)-1-isopropoxypropane-2-sulfonamide or (1S,2S)-N-(4-(4,6-dimethoxypyrimidin-5-yl)-5-((S)-tetrahydrofuran-3-yl)-4H-1,2,4-triazol-3-yl)-1-(5-fluoropyrimidin-2-yl)-1-isopropoxypropane-2-sulfonamide [Example 321.0]”, the EC50 worked out at 68 nM.
Regarding “(1S,2S)-N-(4-(4,6-dimethoxypyrimidin-5-yl)-5-((R)-tetrahydrofuran-3-yl)-4H-1,2,4-triazol-3-yl)-1-(5-fluoropyrimidin-2-yl)-1-isopropoxypropane-2-sulfonamide or (1S,2S)-N-(4-(4,6-dimethoxypyrimidin-5-yl)-5-((S)-tetrahydrofuran-3-yl)-4H-1,2,4-triazol-3-yl)-1-(5-fluoropyrimidin-2-yl)-1-isopropoxypropane-2-sulfonamide [Example 322.0]”, the EC50 worked out at 310 nM.
As to “(1S,2S)-N-(4-(4,6-dimethoxypyrimidin-5-yl)-5-((R)-tetrahydrofuran-3-yl)-4H-1,2,4-triazol-3-yl)-1-isopropoxy-1-(5-methylpyridin-2-yl)propane-2-sulfonamide or (1S,2S)-N-(4-(4,6-dimethoxypyrimidin-5-yl)-5-((S)-tetrahydrofuran-3-yl)-4H-1,2,4-triazol-3-yl)-1-isopropoxy-1-(5-methylpyridin-2-yl)propane-2-sulfonamide [Example 323.0]”, the EC50 is 47 nM.
For “(1S,2S)-N-(4-(4,6-dimethoxypyrimidin-5-yl)-5-((R)-tetrahydrofuran-3-yl)-4H-1,2,4-triazol-3-yl)-1-isopropoxy-1-(5-methylpyridin-2-yl)propane-2-sulfonamide or (1S,2S)-N-(4-(4,6-dimethoxypyrimidin-5-yl)-5-((S)-tetrahydrofuran-3-yl)-4H-1,2,4-triazol-3-yl)-1-isopropoxy-1-(5-methylpyridin-2-yl)propane-2-sulfonamide [Example 324.0]”, the EC50 is 380 nM.
For “(2R)-N-(4-(2,6-dimethoxyphenyl)-5-(tetrahydro-2H-pyran-4-yl)-4H-1,2,4-triazol-3-yl)-1-(5-fluoro-2-pyrimidinyl)-2-propanesulfonamide and (2S)-N-(4-(2,6-dimethoxyphenyl)-5-(tetrahydro-2H-pyran-4-yl)-4H-1,2,4-triazol-3-yl)-1-(5-fluoro-2-pyrimidinyl)-2-propanesulfonamide [Example 15.0]”, the EC50 stood at 470 nM.
Turning to “(2R)-N-(4-(2,6-dimethoxyphenyl)-5-(tetrahydro-2H-pyran-4-yl)-4H-1,2,4-triazol-3-yl)-1-(5-fluoro-2-pyrimidinyl)-2-propanesulfonamide or (2S)-N-(4-(2,6-dimethoxyphenyl)-5-(tetrahydro-2H-pyran-4-yl)-4H-1,2,4-triazol-3-yl)-1-(5-fluoro-2-pyrimidinyl)-2-propanesulfonamide [Example 16.0]”, the EC50 was 380 nM.
To “(2R)-N-(4-(2,6-dimethoxyphenyl)-5-(tetrahydro-2H-pyran-4-yl)-4H-1,2,4-triazol-3-yl)-1-(5-fluoro-2-pyrimidinyl)-2-propanesulfonamide or (2S)-N-(4-(2,6-dimethoxyphenyl)-5-(tetrahydro-2H-pyran-4-yl)-4H-1,2,4-triazol-3-yl)-1-(5-fluoro-2-pyrimidinyl)-2-propanesulfonamide [Example 17.0]” belongs 810 nM.
With “(2R,3S)-N-(4-(2,6-dimethoxyphenyl)-5-((S)-tetrahydrofuran-2-yl)-4H-1,2,4-triazol-3-yl)-3-(5-methylpyrimidin-2-yl)butane-2-sulfonamide or (2R,3S)-N-(4-(2,6-dimethoxyphenyl)-5-((R)-tetrahydrofuran-2-yl)-4H-1,2,4-triazol-3-yl)-3-(5-methylpyrimidin-2-yl)butane-2-sulfonamide [Example 219.0]”, the EC50 amounted to 220 nM.
In the case of “(2R,3S)-N-(4-(2,6-dimethoxyphenyl)-5-((S)-tetrahydrofuran-2-yl)-4H-1,2,4-triazol-3-yl)-3-(5-methylpyrimidin-2-yl)butane-2-sulfonamide or (2R,3S)-N-(4-(2,6-dimethoxyphenyl)-5-((R)-tetrahydrofuran-2-yl)-4H-1,2,4-triazol-3-yl)-3-(5-methylpyrimidin-2-yl)butane-2-sulfonamide [Example 220.0]”, the EC50 is 510 nM.
With “(2S,3R)-3-(5-Chloropyrimidin-2-yl)-N-(4-(3,5-dibromo-2,6-dimethoxyphenyl)-5-((R)-tetrahydrofuran-3-yl)-4H-1,2,4-triazol-3-yl)butane-2-sulfonamide or (2S,3R)-3-(5-chloropyrimidin-2-yl)-N-(4-(3,5-dibromo-2,6-dimethoxyphenyl)-5-((S)-tetrahydrofuran-3-yl)-4H-1,2,4-triazol-3-yl)butane-2-sulfonamide [Example 254.0]”, the EC50 came to 310 nM.
To “(2S,3R)-3-(5-chloro-2-pylimidinyl)-N-(4-(1,3-dimethoxy-2-propanyl)-5-((2R,5R)-5-methyltetrahydro-2-furanyl)-4H-1,2,4-triazol-3-yl)-2-butanesulfonamide or (2S,3R)-3-(5-chloro-2-pyrimidinyl)-N-(4-(1,3-dimethoxy-2-propanyl)-5-((2S,5S)-5-methyltetrahydro-2-furanyl)-4H-1,2,4-triazol-3-yl)-2-butanesulfonamide [Example 375.0]” belongs 92 nM; to “(2S,3R)-3-(5-chloro-2-pyridinyl)-N-(4-(1,3-dimethoxy-2-propanyl)-5-((2R,5R)-5-methyltetrahydro-2-furanyl)-4H-1,2,4-triazol-3-yl)-2-butanesulfonamide or (2S,3R)-3-(5-chloro-2-pyridinyl)-N-(4-(1,3-dimethoxy-2-propanyl)-5-((2S,5S)-5-methyltetrahydro-2-furanyl)-4H-1,2,4-triazol-3-yl)-2-butanesulfonamide [Example 372.0]”, 240 nM; to “(2S,3R)-3-(5-chloro-2-pyridinyl)-N-(4-(1,3-dimethoxy-2-propanyl)-5-((2R,5R)-5-methyltetrahydro-2-furanyl)-4H-1,2,4-triazol-3-yl)-2-butanesulfonamide or (2S,3R)-3-(5-chloro-2-pyridinyl)-N-(4-(1,3-dimethoxy-2-propanyl)-5-((2S,5S)-5-methyltetrahydro-2-furanyl)-4H-1,2,4-triazol-3-yl)-2-butanesulfonamide [Example 373.0]”, 8 nM.
The value for “(2S,3R)-3-(5-chloro-2-pyrimidinyl)-N-(4-(1,3-dimethoxy-2-propanyl)-5-((2R,5R)-5-methyltetrahydro-2-furanyl)-4H-1,2,4-triazol-3-yl)-2-butanesulfonamide or (2S,3R)-3-(5-chloro-2-pyrimidinyl)-N-(4-(1,3-dimethoxy-2-propanyl)-5-((2S,5S)-5-methyltetrahydro-2-furanyl)-4H-1,2,4-triazol-3-yl)-2-butanesulfonamide [Example 374.0]” was 5.6 nM; that for “(2S,3R)-3-(5-chloropyrimidin-2-yl)-N-(4-(2,6-dimethoxyphenyl)-5-((R)-1,1-dioxidotetrahydrothiophen-3-yl)-4H-1,2,4-triazol-3-yl)butane-2-sulfonamide or (2S,3R)-3-(5-chloropyrimidin-2-yl)-N-(4-(2,6-dimethoxyphenyl)-5-((S)-1,1-dioxidotetrahydrothiophen-3-yl)-4H-1,2,4-triazol-3-yl)butane-2-sulfonamide [Example 189.0]” was 200 nM; that for “(2S,3R)-3-(5-chloropyrimidin-2-yl)-N-(4-(2,6-dimethoxyphenyl)-5-((R)-1,1-dioxidotetrahydrothiophen-3-yl)-4H-1,2,4-triazol-3-yl)butane-2-sulfonamide or (2S,3R)-3-(5-chloropyrimidin-2-yl)-N-(4-(2,6-dimethoxyphenyl)-5-((S)-1,1-dioxidotetrahydrothiophen-3-yl)-4H-1,2,4-triazol-3-yl)butane-2-sulfonamide [Example 190.0]” was 300 nM.
The value for “(2S,3R)-3-(5-chloropyrimidin-2-yl)-N-(4-(2,6-dimethoxyphenyl)-5-((R)-3-oxoisoindolin-1-y1)-4H-1,2,4-triazol-3-yl)butane-2-sulfonamide or (2S,3R)-3-(5-chloropyrimidin-2-yl)-N-(4-(2,6-dimethoxyphenyl)-5-((S)-3-oxoisoindolin-1-yl)-4H-1,2,4-triazol-3-yl)butane-2-sulfonamide [Example 235.0]” was 830 nM.
As for “(2S,3R)-3-(5-chloropyrimidin-2-yl)-N-(4-(2,6-dimethoxyphenyl)-5-((S)-3-oxoisoindolin-1-yl)-4H-1,2,4-triazol-3-yl)butane-2-sulfonamide or (2S,3R)-3-(5-chloropyrimidin-2-yl)-N-(4-(2,6-dimethoxyphenyl)-5-((R)-3-oxoisoindolin-1-yl)-4H-1,2,4-triazol-3-yl)butane-2-sulfonamide [Example 234.0]”, the EC50 worked out at 230 nM.
Regarding “(2S,3R)-3-(5-chloropyrimidin-2-yl)-N-(4-(3,5-dibromo-2,6-dimethoxyphenyl)-5-((R)-tetrahydrofuran-3-yl)-4H-1,2,4-triazol-3-yl)butane-2-sulfonamide or (2S,3R)-3-(5-chloropyrimidin-2-yl)-N-(4-(3,5-dibromo-2,6-dimethoxyphenyl)-5-((S)-tetrahydrofuran-3-yl)-4H-1,2,4-triazol-3-yl)butane-2-sulfonamide [Example 331.0]”, the EC50 came to 3500 nM.
To “(2S,3R)-3-(5-chloropyrimidin-2-yl)-N-(4-(4,6-dimethoxypyrimidin-5-yl)-5-((R)-5,5-dimethyltetrahydrofuran-3-yl)-4H-1,2,4-triazol-3-yl)butane-2-sulfonamide or (2S,3R)-3-(5-chloropyrimidin-2-yl)-N-(4-(4,6-dimethoxypyrimidin-5-yl)-5-((S)-5,5-dimethyltetrahydrofuran-3-yl)-4H-1,2,4-triazol-3-yl)butane-2-sulfonamide [Example 317.0]” belongs 52 nM.
